According to patent US20230117324A1, “OXAZINE MONOACYLGLYCEROL LIPASE (MAGL) INHIBITORS” (Hoffmann-La Roche Inc., priority 2018, published 2023):

biological target: T1, MAGL (Homo sapiens, UniProt Q99685); assay: MAGL inhibition, 2-AG assay (hydrolysis of 2-arachidonoylglycerol, arachidonic acid by mass spectrometry); format: biochemical; settings: 2-AG assay (footnote [b])
T1 sequence (Q99685 1-303): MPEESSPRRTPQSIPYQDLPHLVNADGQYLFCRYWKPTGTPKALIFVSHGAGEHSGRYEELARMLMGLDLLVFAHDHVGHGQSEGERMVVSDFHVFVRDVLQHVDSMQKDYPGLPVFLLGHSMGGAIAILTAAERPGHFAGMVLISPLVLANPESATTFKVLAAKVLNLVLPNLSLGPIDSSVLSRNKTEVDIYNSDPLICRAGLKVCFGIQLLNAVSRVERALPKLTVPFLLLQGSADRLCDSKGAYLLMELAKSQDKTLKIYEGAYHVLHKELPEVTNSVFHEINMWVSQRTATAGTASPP
Experimental: Alternatively, compounds were profiled for MAGL inhibitory activity by determining the enzymatic activity by following the hydrolysis of the natural substrate 2-arachidonoylglycerol (2-AG) resulting in arachidonic acid, which can be followed by mass spectrometry. This assay is hereinafter abbreviated “2-AG assay”.
The 2-AG assay was carried out in 384 well assay plates (PP, Greiner Cat #784201) in a total volume of 20 μL. Compound dilutions were made in 100% DMSO (VWR Chemicals 23500.297) in a polypropylene plate in 3-fold dilution steps to give a final concentration range in the assay from 12.5 μM to […]. 0.25 μL compound dilutions (100% DMSO) were added to 9 μL MAGL in assay buffer (50 mM TRIS (GIBCO, 15567-027), 1 mM EDTA (Fluka, 03690-100 mL), 0.01% (v/v) Tween. After shaking, the plate was incubated for 15 min at RT. To start the reaction, 10 μL 2-arachidonoylglycerol in assay buffer was added. The final concentrations in the assay was […] and 8 μM 2-arachidonoylglyerol. After shaking and 30 min incubation at RT, the reaction was quenched by the addition of 40 μL of ACN containing 4 μM of d8-arachidonic acid. The amount of arachidonic acid was traced by an online SPE system (Agilent Rapidfire) coupled to a triple quadrupole mass spectrometer (Agilent 6460). A C18 SPE cartridge (G9205A) was used in an ACN/water liquid setup. The mass spectrometer was operated in negative electrospray mode following the mass transitions 303.1→259.1 for arachidonic acid and 311.1→267.0 for d8-arachidonic acid. The activity of the compounds was calculated based on the ratio of intensities [arachidonic acid/d8-arachidonic acid].

**Q.** `CC(Oc1ccc(C(F)(F)F)cc1Cl)C1CN(C(=O)N2CC[C@@H]3OCC(=O)N[C@@H]3C2)C1` (single isomer, unassigned) [Example 75, (4aR,8aS)-6-(3-(R or S)-(1-(2-chloro-4-(trifluoromethyl)phenoxy)ethyl)azetidine-1-carbonyl)hexahydro-2H-pyrido[4,3-b][1,4]oxazin-3(4H)-one] was tested. Which IC50 did it give?
**A.** The IC50 was 0.028 µM.

**Q.** Which IC50 does the source give for `CC(Oc1ccc(C(F)(F)F)cc1Cl)C1CN(C(=O)N2CC[C@@H]3OCC(=O)N[C@@H]3C2)C1` (single isomer, unassigned) [Example 76, (4aR,8aS)-6-(3-(S or R)-(1-(2-Chloro-4-(trifluoromethyl)phenoxy)ethyl)azetidine-1-carbonyl)hexahydro-2H-pyrido[4,3-b][1,4]oxazin-3(4H)-one] here?
**A.** Its IC50 is 0.001 µM.

**Q.** Which IC50 does the source give for `O=C1CO[C@H]2CCN(C(=O)N3CCC(C(c4ccccc4)c4ccc(OCCF)cc4)CC3)C[C@H]2N1` (single isomer, unassigned) [Example 79, (4aR,8aS)-6-[4-[(S or R)-[4-(2-Fluoroethoxy)phenyl]-phenylmethyl]piperidine-1-carbonyl]-4,4a,5,7,8,8a-hexahydropyrido[4,3-b][1,4]oxazin-3-one] here?
**A.** Its IC50 is 0.0002 µM.

**Q.** Which IC50 does the source give for `Cc1ccc(C(c2ccccc2)C2CCN(C(=O)N3CC[C@@H]4OCC(=O)N[C@@H]4C3)CC2)cc1` (single isomer, unassigned) [Example 84, (4aR,8aS)-6-[4-[(S or R)-Phenyl(p-tolyl)methyl]piperidine-1-carbonyl]-4,4a,5,7,8,8a-hexahydropyrido[4,3-b][1,4]oxazin-3-one] here?
**A.** Its IC50 is 0.0001 µM.

**Q.** With `Cc1ccc(C(c2ccccc2)C2CCN(C(=O)N3CC[C@@H]4OCC(=O)N[C@@H]4C3)CC2)cc1` (single isomer, unassigned) [Example 85, (4aR,8aS)-6-(4-((R or S)-Phenyl(p-tolyl)methyl)piperidine-1-carbonyl)hexahydro-2H-pyrido[4,3-b][1,4]oxazin-3(4H)-one] as the molecule, how does the IC50 read?
**A.** The IC50 was 0.0001 µM.

**Q.** Which IC50 does the source give for `COc1ccc(C(c2ccccc2)C2CCN(C(=O)N3CC[C@@H]4OCC(=O)N[C@@H]4C3)CC2)cc1OC` (single isomer, unassigned) [Example 87, (4aR,8aS)-6-(4-((S or R)-(3,4-Dimethoxyphenyl)(phenyl)methyl)piperidine-1-carbonyl)hexahydro-2H-pyrido[4,3-b][1,4]oxazin-3(4H)-one] here?
**A.** The IC50 was 0.0004 µM.

**Q.** How did the IC50 turn out when `COc1ccc(C(c2ccc(F)cc2)C2CCN(C(=O)N3CC[C@@H]4OCC(=O)N[C@@H]4C3)CC2)cc1OC` (single isomer, unassigned) [Example 88, (4aR,8aS)-6-(4-((R or S)-(3,4-Dimethoxyphenyl)(4-fluorophenyl)methyl)piperidine-1-carbonyl)hexahydro-2H-pyrido[4,3-b][1,4]oxazin-3(4H)-one] was run?
**A.** Its IC50 is 0.0022 µM.

**Q.** With `COc1ccc(C(c2ccc(F)cc2)C2CCN(C(=O)N3CC[C@@H]4OCC(=O)N[C@@H]4C3)CC2)cc1` (single isomer, unassigned) [Example 89, (4aR,8aS)-6-(4-((R or S)-(4-Fluorophenyl)(4-methoxyphenyl)methyl)piperidine-1-carbonyl)hexahydro-2H-pyrido[4,3-b][1,4]oxazin-3(4H)-one] as the molecule, how does the IC50 read?
**A.** Its IC50 is 0.0006 µM.

**Q.** For `O=C1CO[C@H]2CCN(C(=O)N3CCC(C(c4ccc(F)cc4)c4nc(C5CC5)no4)CC3)C[C@H]2N1` (single isomer, unassigned) [Example 94, (4aR,8aS)-6-(4-((R or S)-(3-Cyclopropyl-1,2,4-oxadiazol-5-yl)(4-fluorophenyl)methyl)piperidine-1-carbonyl)hexahydro-2H-pyrido[4,3-b][1,4]oxazin-3(4H)-one], which IC50 is on record?
**A.** The IC50 was 0.002 µM.

**Q.** With `O=C1CO[C@H]2CCN(C(=O)N3CCC(C(c4ccc(F)cc4)c4nc(C5CC5)no4)CC3)C[C@H]2N1` (single isomer, unassigned) [Example 95, (4aR,8aS)-6-(4-((S or R)-(3-Cyclopropyl-1,2,4-oxadiazol-5-yl)(4-fluorophenyl)methyl)piperidine-1-carbonyl)hexahydro-2H-pyrido[4,3-b][1,4]oxazin-3(4H)-one] as the molecule, how does the IC50 read?
**A.** Its IC50 is 0.016 µM.

**Q.** Which IC50 does the source give for `CC(Oc1ccc(C(F)(F)F)cc1F)C1CN(C(=O)N2CC[C@@H]3OCC(=O)N[C@@H]3C2)C1` (single isomer, unassigned) [Example 96, (4aR,8aS)-6-(3-((R or S)-1-(2-Fluoro-4-(trifluoromethyl)phenoxy)ethyl)azetidine-1-carbonyl)hexahydro-2H-pyrido[4,3-b][1,4]oxazin-3(4H)-one] here?
**A.** Its IC50 is 0.044 µM.

**Q.** With `CC(Oc1ccc(C(F)(F)F)cc1F)C1CN(C(=O)N2CC[C@@H]3OCC(=O)N[C@@H]3C2)C1` (single isomer, unassigned) [Example 97, (4aR,8aS)-6-(3-((S or R)-1-(2-Fluoro-4-(trifluoromethyl)phenoxy)ethyl)azetidine-1-carbonyl)hexahydro-2H-pyrido[4,3-b][1,4]oxazin-3(4H)-one] as the molecule, how does the IC50 read?
**A.** The IC50 was 0.016 µM.

**Q.** For `CC(Oc1ccc(C(F)(F)F)cc1)C1CN(C(=O)N2CC[C@@H]3OCC(=O)N[C@@H]3C2)C1` (single isomer, unassigned) [Example 98, (4aR,8aS)-6-(3-((R or S)-1-(4-(Trifluoromethyl)phenoxy)ethyl)azetidine-1-carbonyl)hexahydro-2H-pyrido[4,3-b][1,4]oxazin-3(4H)-one], which IC50 is on record?
**A.** The IC50 was 0.062 µM.

**Q.** `CC(Oc1ccc(C(F)(F)F)cc1)C1CN(C(=O)N2CC[C@@H]3OCC(=O)N[C@@H]3C2)C1` (single isomer, unassigned) [Example 99, (4aR,8aS)-6-(3-((S or R)-1-(4-(Trifluoromethyl)phenoxy)ethyl)azetidine-1-carbonyl)hexahydro-2H-pyrido[4,3-b][1,4]oxazin-3(4H)-one] was tested. Which IC50 did it give?
**A.** Its IC50 is 0.027 µM.

**Q.** How did the IC50 turn out when `O=C1CO[C@H]2CCN(C(=O)N3CCC(C(c4ccc(F)cc4)c4ccc(OCCF)cc4)CC3)C[C@H]2N1` (single isomer, unassigned) [Example 100, (4aR,8aS)-6-(4-((R or S)-(4-(2-Fluoroethoxy)phenyl)(4-fluorophenyl)methyl)piperidine-1-carbonyl)hexahydro-2H-pyrido[4,3-b][1,4]oxazin-3(4H)-one] was run?
**A.** The IC50 was 0.004 µM.

**Q.** `CC(c1ccc(C(F)(F)F)cc1)C1CN(C(=O)N2CC[C@@H]3OCC(=O)N[C@@H]3C2)C1` (single isomer, unassigned) [Example 103, (4aR,8aS)-6-(3-((S or R)-1-(4-(Trifluoromethyl)phenyl)ethyl)azetidine-1-carbonyl)hexahydro-2H-pyrido[4,3-b][1,4]oxazin-3(4H)-one] was tested. Which IC50 did it give?
**A.** The IC50 was 0.099 µM.

**Q.** How did the IC50 turn out when `CC(c1ccc(C(F)(F)F)cc1)C1CN(C(=O)N2CC[C@@H]3OCC(=O)N[C@@H]3C2)C1` (single isomer, unassigned) [Example 104, (4aR,8aS)-6-(3-((R or S)-1-(4-(Trifluoromethyl)phenyl)ethyl)azetidine-1-carbonyl)hexahydro-2H-pyrido[4,3-b][1,4]oxazin-3(4H)-one] was run?
**A.** Its IC50 is 0.111 µM.

**Q.** `O=C1CO[C@H]2CCN(C(=O)N3CC(C(OCC(F)(F)F)c4ccc(F)cc4)C3)C[C@H]2N1` (single isomer, unassigned) [Example 105, (4aR,8aS)-6-[3-(S or R)-[(4-Fluorophenyl)-(2,2,2-trifluoroethoxy)methyl]azetidine-1-carbonyl]-4,4a,5,7,8,8a-hexahydropyrido[4,3-b][1,4]oxazin-3-one] was tested. Which IC50 did it give?
**A.** The IC50 was 0.434 µM.
